In this experiment the test system is M. tuberculosis H37Rv growth inhibition. The experiment in a line: M. tuberculosis H37Rv growth inhibitors, H37Rv strain (AID 1626). As to conditions: for IC90: measured here: IC90 against H37Rv; for CC50: measured here: Vero cell cytotoxicity.

pIC50: −log10 of the molar value.

In the case of `c1ccc(-c2nc(NCCCn3ccnc3)c3ccccc3n2)cc1`, the pIC50 (usually −log10 of the IC50, conventionally taken in molar units) was 5.23; the IC90 (commonly the point of the concentration-response curve where the effect stands at 90%) turned out to be 8.05 µM; the CC50 (usually the concentration giving 50% cytotoxicity) is greater than 40 µM.

As to `CCc1ccc(CCC(=O)Nc2ccc(OC)cc2)o1`, the pIC50 is 4.44 and the IC90 is greater than 100 µM.

Turning to `O=C(CNC(=O)/C(=C/c1ccccc1)NC(=O)c1ccc(Br)cc1)OCc1ccccc1`, the pIC50 was 5.39, the IC90 came out at 6.63 µM and the CC50 was 15.3 µM.

The molecule `CCOC(=O)c1ccc(NC(=O)CCc2c(C)nc3ncnn3c2C)cc1` displayed a concentration for an effect of 90% (IC90) greater than 100 µM.

`CCOc1ccc2nc(SCC(=O)Nc3ccc4c(c3)OCO4)sc2c1`: the pIC50 was 4.60 and the IC90 was greater than 100 µM.

On to `CCC1CCCCN1C(=O)COC(=O)c1cc(Br)ccc1Cl` (configuration not stated), for which the pIC50 is 4.82 and the IC90 was greater than 100 µM.

Take `COc1ccccc1NC(CC(=O)c1ccccc1)C(=O)OCC(=O)c1ccc(Br)cc1` (configuration not stated): the pIC50 was 4.86 and the IC90 was 21.1 µM.

Consider `O=C(CSc1nc2ccccc2o1)Nc1nc(-c2ccccc2)cs1`, for which the negative-log IC50 (pIC50) is 4.55 and the concentration for an effect of 90% (IC90) is greater than 100 µM.

With `CCCCc1c(C)c(C#N)c2[nH]c3ccccc3n2c1=O`, the pIC50 was 4.64, the IC90 was greater than 100 µM and the CC50 turned out to be 22.9 µM.

With `COc1cc(CNCCc2ccccc2)cc(Cl)c1OCc1ccccc1`, the pIC50 was 5.06, the IC90 stood at 11 µM and the CC50 was found to be 27.8 µM.

For the molecule `CCOC(=O)C1=Nc2ccccc2C1=[N+]=[N-]`, the pIC50 is 6.04, the IC90 came to 1.23 µM and the CC50 turned out to be 36.7 µM.

With `CCCCOc1ccc(NC(=O)c2cnc(C)cn2)cc1`, the pIC50 was 4.66, the IC90 was greater than 100 µM and the CC50 was greater than 40 µM.

On to `O=[N+]([O-])c1cc(C(F)(F)F)ccc1Oc1cccnc1[N+](=O)[O-]`, for which the pIC50 is 5.81 and the IC90 came to 1.73 µM.

Regarding `CCCCCc1cc(=O)oc2c(C(CCN3CCCC3)c3ccc(N(C)C)cc3)c(OC)cc(OC)c12` (configuration not stated), the pIC50 was 5.36, the IC90 turned out to be 6.04 µM and the CC50 was 14 µM.

As to `COc1cccc(-c2nnc(NC(=O)c3ccccc3Br)o2)c1`, the pIC50 was 5.42, the IC90 came to 9.35 µM and the CC50 is greater than 40 µM.

Consider `COc1ccc(CNCCC(c2ccc(F)cc2)c2ccc(OC(C)C)cc2)cc1OC` (configuration not stated), for which the pIC50 is 4.82, the IC90 was 20.8 µM and the CC50 is 15.4 µM.

In the case of `CC(=O)n1cc(N(C(=O)CCl)c2ccccc2)c2ccccc21`, the negative-log IC50 (pIC50) was 5.51, the IC90 amounted to 7.33 µM and the CC50 was determined as 0.792 µM.

As to `COc1ccc(N)c2c1C(=O)c1ccccc1C2=O`, the pIC50 is 4.76, the IC90 was greater than 100 µM and the CC50 is greater than 40 µM.

With `COc1ccc(CN2CCN(CC(O)Cn3c4ccccc4c4ccccc43)CC2)cc1` (configuration not stated), the pIC50 is 5.27, the IC90 turned out to be 8.3 µM and the CC50 stood at 15 µM.

For `OC1(C#Cc2c(-c3ccsc3)oc3ccc(N4CCOCC4)cc23)CCCCC1`, the pIC50 is 4.82, the IC90 is greater than 100 µM and the half-maximal cytotoxic concentration (CC50) is greater than 40 µM.

In the case of `CC(NC(=O)c1ccc([N+](=O)[O-])cc1[N+](=O)[O-])c1ccc(-c2ccccc2)cc1` (configuration not stated), the pIC50 was 5.60, the IC90 is greater than 100 µM and the cytotoxic concentration (CC50) was greater than 40 µM.

Consider `CCc1ccccc1NC(=O)c1cccc(NC(=O)/C=C/c2ccco2)c1`, for which the CC50 was greater than 40 µM.

Consider `COc1cccc2c1nc(C)c1cc(C)oc12`, for which the pIC50 was 5.25, the IC90 was greater than 100 µM and the CC50 was greater than 40 µM.

For the molecule `O=C1c2cc([N+](=O)[O-])cc3cc([N+](=O)[O-])cc(c23)C(=O)N1c1ccccn1`, the pIC50 was 5.54, the IC90 worked out at 3.34 µM and the CC50 is 35.9 µM.

For the molecule `CCCOC(=O)c1ccc(NC(=O)C(=O)NCCN(CC)CC)cc1`, the pIC50 is 4.27 and the IC90 is greater than 100 µM.

With `O=C(Nc1nnc(-c2cccnc2)o1)c1cccc(Cl)c1`, the pIC50 is 5.49, the IC90 was greater than 100 µM and the CC50 was 33.7 µM.

Consider `c1ccc(-c2cc(-c3ccncc3)nc3ccc4ccccc4c23)cc1`, for which the cytotoxic concentration (CC50) was greater than 40 µM.

Consider `Cc1cccc(/C=c2\s/c(=C\C(=O)C(C)(C)C)[nH]c2=O)c1`, for which the negative-log IC50 (pIC50) was 6.33, the IC90 worked out at 11.6 µM and the CC50 worked out at 29 µM.

On to `O=C(C1CCN(c2nnc(-n3cccc3)s2)CC1)N1CCN(c2cccc(C(F)(F)F)c2)CC1`, for which the pIC50 was 6.59, the IC90 is 1.05 µM and the CC50 was greater than 40 µM.

With `Nc1nc(CN2CCN(C(c3ccccc3)c3ccccc3)CC2)nc(Nc2ccccc2)n1`, the pIC50 was 4.44, the IC90 was greater than 100 µM and the CC50 was greater than 40 µM.

On to `O=c1oc2ccccc2nc1/C=C(\O)c1ccc(Br)cc1`, for which the negative-log IC50 (pIC50) was 5.45 and the IC90 was greater than 100 µM.

As to `Cc1ccc(C)c(-c2cc(C(=O)Nc3sc(C)c(C)c3C(N)=O)c3ccccc3n2)c1`, the CC50 was greater than 40 µM.

Take `CSc1nsc(SCC(=O)Nc2ccc(OC(C)=O)cc2)n1`: the pIC50 is 5.59 and the IC90 turned out to be 3.79 µM.

Regarding `Cc1ccc(OC(=O)c2ccc(Br)o2)cc1`, the pIC50 is 4.18 and the IC90 was greater than 100 µM.

Regarding `CN1CCN(c2ccc(C(=O)c3cn(-c4ccc(F)c(Cl)c4)nn3)cc2)CC1`, the pIC50 is 5.46, the concentration for an effect of 90% (IC90) was greater than 100 µM and the CC50 is 9.78 µM.

Turning to `Cc1ccn2c(NC3CCCC3)c(-c3ccccn3)nc2c1`, the pIC50 was 5.50, the IC90 is 5.24 µM and the CC50 worked out at 8.93 µM.

`COC(=O)CSc1ccc(-c2nc3ccc(C)cc3[nH]2)cn1`: the pIC50 is 5.71 and the IC90 turned out to be 3.39 µM.

Take `CCSc1nnc(NC(=O)c2ccc3ccccc3n2)s1`: the pIC50 is 6.20, the IC90 turned out to be 2.19 µM and the CC50 came out at 38.1 µM.

For the molecule `Brc1ccc(OCc2nc(-c3ccccn3)n[nH]2)cc1`, the CC50 was 10.6 µM.

`CCOC(=O)N1CCN(C(=O)CSc2nnc(COc3ccccc3)o2)CC1`: the pIC50 was 4.61 and the IC90 is 40 µM.

Consider `O=C(CSc1nc2cc(Cl)ccc2o1)NCCc1ccccc1`, for which the pIC50 is greater than 6.41 and the IC90 came to 1.09 µM.

As for `Nc1ccc2cc(Br)ccc2c1`, the pIC50 is 6.20 and the IC90 is greater than 100 µM.

On to `O=[N+]([O-])c1cc(CN2CCCC2)ccc1Sc1ccc(Cl)cc1`, for which the pIC50 is 4.53, the IC90 was greater than 100 µM and the CC50 is greater than 40 µM.

For the molecule `Cc1cc(C)c(C2C3=C(Nc4c2c(C)nn4-c2ccccn2)c2ccccc2C3=O)c(C)c1` (configuration not stated), the pIC50 is 5.25, the IC90 came to 8.83 µM and the CC50 is greater than 40 µM.

On to `COc1ccc(C(CCN2CCCC(C)C2)c2c(OC)cc(OC)c3c(-c4ccccc4)cc(=O)oc23)cc1` (configuration not stated), for which the pIC50 was 5.12, the IC90 was 10.2 µM and the half-maximal cytotoxic concentration (CC50) worked out at 14.1 µM.

Consider `N#Cc1ncc(-c2ccc3c(c2)OCCOCCOCCOCCOCCO3)nc1C#N`, for which the pIC50 is 5.74, the IC90 was 3.08 µM and the CC50 was 22.6 µM.

With `O=C(NCc1nnc2c3ccccc3c(-c3ccccc3)nn12)c1ccc(Cl)cc1`, the pIC50 was 5.52, the IC90 is 3.32 µM and the CC50 is greater than 40 µM.

Turning to `CC(C)c1cc(NC(=O)CCl)on1`, the pIC50 is 4.86, the IC90 stood at 32.6 µM and the half-maximal cytotoxic concentration (CC50) came to 16.7 µM.

Turning to `CCN(CC)C(=O)CSc1nnc2nnc3cc(Cl)ccc3n12`, the pIC50 is 5.91, the IC90 was found to be 7.51 µM and the cytotoxic concentration (CC50) came to 19.8 µM.

As for `N#C/C(=C(/O)CSc1nnc(Cc2cccs2)n1C1CCCCC1)c1nc2ccccc2[nH]1`, the IC90 is greater than 100 µM.

For `CSc1ccc(NC(=O)N2CC=C(n3c(=O)[nH]c4ccccc43)CC2)cc1`, the CC50 is greater than 40 µM.

As for `Cc1ccc(-c2nn(-c3ccccc3)cc2NC(=O)CCl)cc1`, the pIC50 is 4.53, the IC90 is greater than 100 µM and the CC50 was found to be 27.1 µM.

Take `NC1=NC[C@H](Cc2ccccc2)N1CCCCC1CCCCC1`: the pIC50 is 5.00, the 90% effect concentration (IC90) was 13.6 µM and the CC50 is greater than 40 µM.

Consider `COc1cccc(CC2(CO)CCCN(Cc3[nH]c4ccc(C)cc4c3C)C2)c1` (configuration not stated), for which the pIC50 was 5.07, the IC90 was determined as 11.2 µM and the CC50 was greater than 40 µM.

For `N=C(N)SCc1cn(-c2ccccc2)nc1-c1ccc(Br)cc1`, the pIC50 is 5.17, the IC90 amounted to 9.39 µM and the CC50 was 14.6 µM.

In the case of `Cc1c2c(nc3ccccc13)CCC(C)C2` (configuration not stated), the pIC50 was 4.78 and the IC90 amounted to 40.6 µM.

Take `Cc1ccc(-c2ccc(SCC(=O)Nc3nonc3C)nn2)cc1`: the pIC50 was 5.75 and the IC90 was determined as 3.88 µM.

For `COc1ccc(C(C[N+](=O)[O-])n2nc(C)cc2C)cc1` (configuration not stated), the CC50 is greater than 40 µM.

In the case of `Cc1cccc(-c2cc3nc(C)c(C)c(NCCCn4ccnc4)n3n2)c1`, the pIC50 was 5.34, the IC90 was found to be 8.03 µM and the CC50 is greater than 40 µM.

For `CCOc1c2c(nc3ccc(Cl)cc13)CCC2`, the pIC50 is 5.29, the IC90 was found to be 21.4 µM and the CC50 was greater than 40 µM.

In the case of `COc1cc(OC)c2c(-c3ccccc3)cc(=O)oc2c1C(CCN1CCCC(C)C1)c1ccc(N(C)C)cc1` (configuration not stated), the pIC50 is 5.38, the IC90 is 5.41 µM and the CC50 was 17.1 µM.

As to `CCCn1c(NC(=O)c2cccc(C)c2C)nc2ccccc21`, the pIC50 was 6.00, the 90% effect concentration (IC90) worked out at 3.63 µM and the CC50 came out at 24.7 µM.

In the case of `Cc1ccc(NC(=O)COC(=O)C2=COCCO2)c([N+](=O)[O-])c1`, the pIC50 is 5.20 and the IC90 was greater than 100 µM.

For the molecule `COc1cc2nc(C3CCC3)nc(N3CCN(c4ccccc4OC)CC3)c2cc1OC`, the pIC50 was 5.41, the IC90 was 6.52 µM and the CC50 was greater than 40 µM.

For the molecule `Cc1ccc(C(=O)/C=C/c2ccccc2[N+](=O)[O-])cc1`, the negative logarithm of the IC50 (pIC50) is 5.38, the IC90 was 7.62 µM and the CC50 is 26.5 µM.

These data come from PubChem BioAssay AID1626 (SRMLSC, 2009).
